In patent publication US11708348B2, “Protease inhibitors for treatment of coronavirus infections” (The Scripps Research Institute, priority 2021, dated 2023):
Where two headings read alike, the source gives them in different places.

Test system: SARS-CoV-2 strain USA-WA1/2020
Assay: microbe, parasite or virus in culture
Format: cell-based
Conditions: Severe acute respiratory syndrome coronavirus 2, HeLa-ACE2, 24 h, read-out: EC50, uM (Hela)
[1] = HeLa-ACE2 cells, SARS-CoV-2 infection, 24 h

| Structure (SMILES) | EC50 [1] | also measured |
| --- | --- | --- |
| CC(C)(O)CCC(=O)N1CC2(CC2)C[C@H]1C(=O)N[C@@H](C[C@@H]1CCNC1=O)C(=O)COC(F)(F)F [Compound 430, (S)-5-(4-hydroxy-4-methylpentanoyl)-N-((S)-3-oxo-1-((S)-2-oxopyrrolidin-3-yl)-4-(trifluoromethoxy)butan-2-yl)-5-azaspiro[2.4]heptane-6-carboxamide] | 0.2 to 0.5 µM |  |
| CC(C)[C@H](O)CC(=O)N1CC2(CC2)C[C@H]1C(=O)N[C@@H](C[C@@H]1CCNC1=O)C(=O)COC(F)(F)F [Compound 431, (S)-5-((R)-3-hydroxy-4-methylpentanoyl)-N-((S)-3-oxo-1-((S)-2-oxopyrrolidin-3-yl)-4-(trifluoromethoxy)butan-2-yl)-5-azaspiro[2.4]heptane-6-carboxamide] | 0.05 to 0.2 µM |  |
| CC(C)[C@@H](O)CC(=O)N1CC2(CC2)C[C@H]1C(=O)N[C@@H](C[C@@H]1CCNC1=O)C(=O)COC(F)(F)F [Compound 432, (S)-5-((S)-3-hydroxy-4-methylpentanoyl)-N-((S)-3-oxo-1-((S)-2-oxopyrrolidin-3-yl)-4-(trifluoromethoxy)butan-2-yl)-5-azaspiro[2.4]heptane-6-carboxamide] | 0.05 to 0.2 µM |  |
| COC(=O)N[C@H](C(=O)N1CC2(CC2)C[C@H]1C(=O)N[C@@H](C[C@@H]1CCNC1=O)C(=O)COC(F)(F)F)C(C)(C)C [Compound 433, methyl ((S)-3,3-dimethyl-1-oxo-1-((S)-6-(((S)-3-oxo-1-((S)-2-oxopyrrolidin-3-yl)-4-(trifluoromethoxy)butan-2-yl)carbamoyl)-5-azaspiro[2.4]heptan-5-yl)butan-2-yl)carbamate] | 0.05 to 0.2 µM |  |
| CC(C)C[C@H](NC(=O)CNC1(C(F)(F)F)CC1)C(=O)N[C@@H](C[C@@H]1CCNC1=O)C(=O)COC(F)(F)F [Compound 434, (S)-4-methyl-N-((S)-3-oxo-1-((S)-2-oxopyrrolidin-3-yl)-4-(trifluoromethoxy)butan-2-yl)-2-(2-((1-(trifluoromethyl)-cyclopropyl)amino)-acetamido)pentanamide] | < 0.05 µM |  |
| CNC(=O)N[C@H](CC(C)C)C(=O)N1CC2(CC2)C[C@H]1C(=O)N[C@@H](C[C@@H]1CCNC1=O)C(=O)COC(F)(F)F [Compound 435, (S)-5-((methylcarbamoyl)-D-leucyl)-N—((S)-3-oxo-1-((S)-2-oxopyrrolidin-3-yl)-4-(trifluoromethoxy)butan-2-yl)-5-azaspiro[2.4]heptane-6-carboxamide] | 0.2 to 0.5 µM |  |
| CC(=O)N[C@H](C(=O)N1CC2(CC2)C[C@H]1C(=O)N[C@@H](C[C@@H]1CCNC1=O)C(=O)COC(F)(F)F)C(C)(C)C [Compound 436, (S)-5-((S)-2-acetamido-3,3-dimethylbutanoyl)-N-((S)-3-oxo-1-((S)-2-oxopyrrolidin-3-yl)-4-(trifluoromethoxy)butan-2-yl)-5-azaspiro[2.4]heptane-6-carboxamide] |  | EC50 (HeLa-ACE2 cells, SARS-CoV-2 infection, 24 h, given as bound): > 1 µM |
| O=C(NCC(=O)N1CC2(CC2)C[C@H]1C(=O)N[C@@H](C[C@@H]1CCNC1=O)C(=O)COC(F)(F)F)c1ccccc1F [Compound 437, (S)-5-((2-fluorobenzoyl)glycyl)-N-((S)-3-oxo-1-((S)-2-oxopyrrolidin-3-yl)-4-(trifluoromethoxy)butan-2-yl)-5-azaspiro[2.4]heptane-6-carboxamide] | 0.05 to 0.2 µM |  |
| CC[C@@H](N)C(=O)N1C[C@H]2[C@@H]([C@H]1C(=O)N[C@@H](C[C@@H]1CCNC1=O)C(=O)COC(F)(F)F)C2(C)C [Compound 439, (1R,2S,5S)-3-((R)-2-aminobutanoyl)-6,6-dimethyl-N-((S)-3-oxo-1-((S)-2-oxopyrrolidin-3-yl)-4-(trifluoromethoxy)butan-2-yl)-3-azabicyclo[3.1.0]-hexane-2-carboxamide] | 0.2 to 0.5 µM |  |
| CN1CCC[C@H]1C(=O)N1C[C@@H]2CCC[C@@H]2[C@H]1C(=O)N[C@@H](C[C@@H]1CCNC1=O)C(=O)COC(F)(F)F [Compound 440, (1S,3aR,6aS)-2-(methylprolyl)-N-((S)-3-oxo-1-((S)-2-oxopyrrolidin-3-yl)-4-(trifluoromethoxy)butan-2-yl)octahydrocyclo-penta[c]pyrrole-1-carboxamide] | 0.5 to 1 µM |  |
| CC(C)(C)[C@H](NC(=O)C(F)(F)F)C(=O)N1CC2(CC2)C[C@H]1C(=O)N[C@@H](C[C@@H]1CCNC1=O)C(=O)COC(F)(F)F [Compound 441, (S)-5-((S)-3,3-dimethyl-2-(2,2,2-trifluoroacetamido)butanoyl)-N—((S)-3-oxo-1-((S)-2-oxopyrrolidin-3-yl)-4-(trifluoromethoxy)butan-2-yl)-5-azaspiro[2.4]heptane-6-carboxamide] |  | EC50: < 0.05 µM |
| CC1(C)[C@@H]2[C@@H](C(=O)N[C@@H](C[C@@H]3CCNC3=O)C(=O)COC(F)(F)F)N(C(=O)C(CN3CCC(F)(F)CC3)NC(=O)C(F)(F)F)C[C@@H]21 (stereo partly drawn) [Compound 442, (1R,2S, 5S)-3-(3-(4,4-difluoropiperidin-1-yl)-2-(2,2,2-trifluoroacetamido)-propanoyl)-6,6-dimethyl-N-((S)-3-oxo-1-((S)-2-oxopyrrolidin-3-yl)-4-(trifluoromethoxy)butan-2-yl)-3-azabicyclo[3.1.0]-hexane-2-carboxamide] |  | EC50: 0.2 to 0.5 µM |
| CC(C)(C)[C@H](NC(=O)OC1CC1)C(=O)N1C[C@H]2[C@@H]([C@H]1C(=O)N[C@@H](C[C@@H]1CCNC1=O)C(=O)COC(F)(F)F)C2(C)C [Compound 447, cyclopropyl ((S)-1-((1R,2S,5S)-6,6-dimethyl-2-(((S)-3-oxo-1-((S)-2-oxopyrrolidin-3-yl)-4-(trifluoromethoxy)butan-2-yl)carbamoyl)-3-azabicyclo[3.1.0]-hexan-3-yl)-3,3-dimethyl-1-oxobutan-2-yl)carbamate] | < 0.05 µM |  |
| CCC(CC)C(=O)N1CC2(CC2)C[C@H]1C(=O)N[C@@H](C[C@@H]1CCNC1=O)C(=O)COC(F)(F)F [Compound 448, (S)-5-(2-ethylbutanoyl)-N-((S)-3-oxo-1-((S)-2-oxopyrrolidin-3-yl)-4-(trifluoromethoxy)butan-2-yl)-5-azaspiro[2.4]heptane-6-carboxamide] | 0.05 to 0.2 µM |  |
| CC(C)C[C@@H](O)C(=O)N(C(=O)[C@@H]1C[C@@]2(C)C[C@H]2N1)[C@@H](C[C@@H]1CCNC1=O)C(=O)COC(F)(F)F [Compound 449, (1R,3S,5R)-2-((R)-2-hydroxy-4-methylpentanoyl)-5-methyl-N-((S)-3-oxo-1-((S)-2-oxopyrrolidin-3-yl)-4-(trifluoromethoxy)butan-2-yl)-2-azabicyclo[3.1.0]-hexane-3-carboxamide] | 0.05 to 0.2 µM |  |
| O=C1NCC[C@H]1C[C@H](NC(=O)[C@@H]1CC2(CC2)CN1C(=O)[C@H](O)CC(F)F)C(=O)COC(F)(F)F [Compound 450, (S)-5-((R)-4,4-difluoro-2-hydroxybutanoyl)-N-((S)-3-oxo-1-((S)-2-oxopyrrolidin-3-yl)-4-(trifluoromethoxy)butan-2-yl)-5-azaspiro[2.4]heptane-6-carboxamide] | 0.05 to 0.2 µM |  |
| CC(C)[C@@H](O)C(=O)N1[C@H](C(=O)N[C@@H](C[C@@H]2CCNC2=O)C(=O)COC(F)(F)F)C[C@@]2(C)C[C@@H]12 [Compound 452, (1R,3S,5R)-2-((R)-2-hydroxy-3-methylbutanoyl)-5-methyl-N-((S)-3-oxo-1-((S)-2-oxopyrrolidin-3-yl)-4-(trifluoromethoxy)butan-2-yl)-2-azabicyclo[3.1.0]hexane-3-carboxamide] | 0.05 to 0.2 µM |  |
| CC(C)(C)c1ccc(C(=O)N2CC3(CC3)C[C@H]2C(=O)N[C@@H](C[C@@H]2CCNC2=O)C(=O)COC(F)(F)F)cc1 [Compound 453, (S)-5-(4-(tert-butyl)benzoyl)-N-((S)-3-oxo-1-((S)-2-oxopyrrolidin-3-yl)-4-(trifluoromethoxy)butan-2-yl)-5-azaspiro[2.4]heptane-6-carboxamide] | < 0.05 µM |  |
| CC(C)(C)C[C@@H](O)C(=O)N1C[C@H]2[C@@H]([C@H]1C(=O)N[C@@H](C[C@@H]1CCNC1=O)C(=O)COC(F)(F)F)C2(C)C [Compound 454, (1R,2S,5S)-3-((R)-2-hydroxy-4,4-dimethylpentanoyl)-6,6-dimethyl-N-((S)-3-oxo-1-((S)-2-oxopyrrolidin-3-yl)-4-(trifluoromethoxy)butan-2-yl)-3-azabicyclo[3.1.0]-hexane-2-carboxamide] | < 0.05 µM |  |
| CC(C)(C)c1cccc(C(C)(C)C(=O)N2CC3(CC3)C[C@H]2C(=O)N[C@@H](C[C@@H]2CCNC2=O)C(=O)COC(F)(F)F)c1 [Compound 455, (S)-5-(2-(3-(tert-butyl)phenyl)-2-methylpropanoyl)-N-((S)-3-oxo-1-((S)-2-oxopyrrolidin-3-yl)-4-(trifluoromethoxy)butan-2-yl)-5-azaspiro[2.4]heptane-6-carboxamide] | 0.05 to 0.2 µM |  |
| CC(C)(C(=O)N1CC2(CC2)C[C@H]1C(=O)N[C@@H](C[C@@H]1CCNC1=O)C(=O)COC(F)(F)F)c1cccc(C(F)(F)F)c1 [Compound 456, (S)-5-(2-methyl-2-(3-(trifluoromethyl)-phenyl)propanoyl)-N-((S)-3-oxo-1-((S)-2-oxopyrrolidin-3-yl)-4-(trifluoromethoxy)butan-2-yl)-5-azaspiro[2.4]heptane-6-carboxamide] | < 0.05 µM |  |
| O=C1NCC[C@H]1C[C@H](NC(=O)[C@@H]1CC2(CC2)CN1C(=O)c1cccc(C(F)(F)F)c1)C(=O)COC(F)(F)F [Compound 457, (S)-N-((S)-3-oxo-1-((S)-2-oxopyrrolidin-3-yl)-4-(trifluoromethoxy)butan-2-yl)-5-(3-(trifluoromethyl)-benzoyl)-5-azaspiro[2.4]heptane-6-carboxamide] | < 0.05 µM |  |
| CC(C)(C)c1cccc(C(=O)N2CC3(CC3)C[C@H]2C(=O)N[C@@H](C[C@@H]2CCNC2=O)C(=O)COC(F)(F)F)c1 [Compound 458, (S)-5-(3-(tert-butyl)benzoyl)-N-((S)-3-oxo-1-((S)-2-oxopyrrolidin-3-yl)-4-(trifluoromethoxy)butan-2-yl)-5-azaspiro[2.4]heptane-6-carboxamide] | < 0.05 µM |  |
